Data: PubChem BioAssay AID504322 (Emory University Molecular Libraries Screening Center, 2011)
Calls of active or inactive are those of the source. No rule for the calls is given here.

System: CHOP reporter cell assay, percent of control
Test: CHOP reporter inhibitor potency, dose response, cell-based (AID 504322);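 also: CHO cells carrying a CHOP reporter stimulated with tunicamycin to induce ER stress; potency is for inhibition of the stress-induced reporter signal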

Question: How did the IC50 turn out when `CN(C)c1ccc(/C=C/c2ccc3c4ccccc4ccc3[n+]2-c2ccccc2)cc1` was run?
Answer: The IC50 was 1.14 µM (inactive).

Question: With `Fc1cccc(-c2nnn3c2nc(Cl)c2ccccc23)c1` as the molecule, how does the IC50 read?
Answer: The IC50 was 7.37 µM (inactive).

Question: With `Cc1ccc(NP(=O)(Oc2ccccc2F)Oc2ccccc2F)cc1` as the molecule, how does the IC50 read?
Answer: The IC50 was 5.26 µM (inactive).

Question: `Cc1ccc2nc(Nc3ccc4[nH]c(=O)[nH]c4c3)c(-n3nc(C)cc3C)nc2c1` was tested. Which IC50 did it give?
Answer: The IC50 was 6.47 µM.

Question: Which IC50 does the source give for `COc1ccccc1-n1cc([C@@H]2C[C@H]3CN(c4ccccc4)C(=O)[C@]34CCCN24)cn1` here?
Answer: The IC50 was 1.89 µM.

Question: With `COc1ccc(/C=C2\SC(=S)N(CCCC(=O)Nc3ccc(O)cc3)C2=O)cc1` as the molecule, how does the IC50 read?
Answer: Its IC50 is under 0.16 µM.

Question: How did the IC50 turn out when `CCOC(=O)CCS(=O)(=O)c1nc(-c2ccccc2)cc(C(F)(F)F)n1` was run?
Answer: The IC50 was under 0.16 µM.

Question: `NC(=S)n1[nH]c(-c2ccc([N+](=O)[O-])cc2)c(N=Nc2cccc([N+](=O)[O-])c2)c1=O` was tested. Which IC50 did it give?
Answer: The IC50 was 4.4 µM (inactive).

Question: For `O=S(=O)(NCC(Nc1ccc(Cl)cc1)c1ccccc1)c1ccc(Cl)cc1` (stereo unspecified), which IC50 is on record?
Answer: Its IC50 is 6.69 µM (inactive).

Question: `CCNC(=O)c1c(NC(=O)c2cc(-c3cc(C)ccc3O)n[nH]2)sc2c1CCCC2` was tested. Which IC50 did it give?
Answer: Its IC50 is 9.58 µM (inactive).

Question: How did the IC50 turn out when `Cc1cc(C)c(S(=O)(=O)c2ccccc2)c(OC(=O)c2cc(F)c(F)cc2Cl)n1` was run?
Answer: The IC50 was 8.2 µM (inactive).

Question: Which IC50 does the source give for `CCCCCCNC(=O)CC(c1ccccc1)c1cc(Br)ccc1O` (stereo unspecified) here?
Answer: Its IC50 is 3.52 µM.

Question: How did the IC50 turn out when `O=C(COC(=O)Cc1c(Cl)cccc1Cl)Nc1ccc(OC(F)(F)F)cc1` was run?
Answer: The IC50 was > 10 µM (inactive).

Question: `COc1ccc(OCc2n(CC(=O)OC3CC(C)CCC3C(C)C)c3ccccc3[n+]2C)cc1` (stereo unspecified) was tested. Which IC50 did it give?
Answer: Its IC50 is > 10 µM (inactive).

Question: How did the IC50 turn out when `Cc1cc2c(cc1C)CSC(c1c(O)ccc3ccccc13)SC2` was run?
Answer: Its IC50 is > 10 µM (inactive).

Question: For `CC(C)=C1C2CCC1C(C(=O)Nc1sc(C)c(-c3ccc(C(C)C)cc3)c1C(N)=O)C2C(=O)O` (stereo unspecified), which IC50 is on record?
Answer: The IC50 was 4.8 µM.

Question: With `COc1ccc(N=c2oc3ccc(OC)cc3cc2-c2nc3ccccc3[nH]2)cc1` as the molecule, how does the IC50 read?
Answer: The IC50 was 9.72 µM (inactive).

Question: Which IC50 does the source give for `COCCn1c(=NC(=O)/C=C/c2cccs2)sc2cc(NC(C)=O)ccc21` here?
Answer: Its IC50 is > 10 µM (inactive).

Question: For `CC1(c2ccccc2)CC(C)(C)N2C(=O)/C(=C3\SC(=S)NC3=O)c3cccc1c32` (stereo unspecified), which IC50 is on record?
Answer: The IC50 was 6.98 µM (inactive).

Question: For `CCC1(c2ccc(F)cc2)NC(=O)N(CC(=O)Nc2ccc(-c3nc4ccc(C)cc4s3)cc2)C1=O` (stereo unspecified), which IC50 is on record?
Answer: Its IC50 is 1.54 µM.

Question: For `COc1ccc(/C=C2/SC(=S)N(CCCC(=O)Nc3ccc(O)cc3)C2=O)cc1`, which IC50 is on record?
Answer: Its IC50 is 0.25 µM.

Question: How did the IC50 turn out when `CCCOc1ccccc1C1CC(=O)NC(C)=C1C(=O)OCC(C)C` (stereo unspecified) was run?
Answer: Its IC50 is 5.14 µM (inactive).

Question: Which IC50 does the source give for `CC(C)=CCCC1(C)C=Cc2c(c(C)cc3c2[nH]c2cc(O)ccc23)O1` (stereo unspecified) here?
Answer: The IC50 was 6.04 µM (inactive).

Question: With `COc1oc(-c2ccc(Cl)cc2)nc1C(F)(F)F` as the molecule, how does the IC50 read?
Answer: Its IC50 is 1.29 µM.

Question: For `C=C(C=O)CC1CC(O)[C@]2(C)OC3CC4OC5C[C@]6(C)O[C@]7(C)CCC8OC9C[C@]%10(C)OC%11C(C)=CC(=O)OC%11CC%10OC9C[C@@H](C)C8OC7CC6O[C@]5(C)CC5OC5C4OC3CC2O1` (stereo partly specified), which IC50 is on record?
Answer: Its IC50 is 0.82 µM.

Question: For `N=c1n(CC(=O)c2ccc([N+](=O)[O-])cc2)c2ccccc2n1Cc1ccc(Cl)cc1`, which IC50 is on record?
Answer: Its IC50 is > 10 µM (inactive).

Question: Which IC50 does the source give for `OC(CNCCc1ccc(C(F)(F)F)cc1)COc1cccc2ccccc12` (stereo unspecified) here?
Answer: The IC50 was < 0.16 µM (inactive).

Question: Which IC50 does the source give for `O=C(Nc1ccc(Br)c(C(F)(F)F)c1)c1ccc(C(F)(F)F)cc1` here?
Answer: Its IC50 is 9.82 µM (inactive).

Question: How did the IC50 turn out when `CCN1/C(=C/C(C)=C/c2sc3ccccc3[n+]2CC)Sc2ccccc21` was run?
Answer: Its IC50 is under 0.16 µM.

Question: `Cc1cc(O)c(NC(=S)NC(=O)c2ccc(-c3ccc(Cl)cc3)o2)cc1C` was tested. Which IC50 did it give?
Answer: Its IC50 is under 0.16 µM.

Question: Which IC50 does the source give for `O=C(CCl)Nc1cc(-c2ccccc2)nn1-c1ccccc1` here?
Answer: Its IC50 is 9.78 µM (inactive).

Question: Which IC50 does the source give for `CC1CCCC(NC(=O)COC(=O)/C=C/c2ccc3c(c2)OCO3)C1C` (stereo unspecified) here?
Answer: The IC50 was > 10 µM (inactive).

Question: With `CCN(CCO)c1ncnc2c1sc1nc(C(C)C)c3c(c12)CC(C)(C)OC3` as the molecule, how does the IC50 read?
Answer: The IC50 was 9.63 µM (inactive).

Question: For `Oc1cccc(-c2nc3c4c(ncn3n2)-c2ccccc2CC42CCCC2)c1`, which IC50 is on record?
Answer: Its IC50 is 5.25 µM (inactive).

Question: Which IC50 does the source give for `COc1ccc(CCN2C(=O)c3[nH]nc(-c4ccccc4O)c3C2c2cccc(Cl)c2)cc1` (stereo unspecified) here?
Answer: Its IC50 is > 10 µM (inactive).

Question: How did the IC50 turn out when `CC1CCC(C(C)C)C(OC(=O)COC(=O)c2cc(O)ccc2N)C1` (stereo unspecified) was run?
Answer: Its IC50 is 4.09 µM (inactive).
